Assay results: ChEMBL document CHEMBL1127439, “Structure-activity relationship studies of central nervous system agents. 13. 4-[3-(Benzotriazol-1-yl)propyl]-1-(2-methoxyphenyl)piperazine, a new putative 5-HT1A receptor antagonist, and its analogs” (J Med Chem, 1994)

How the values were obtained:
Format in all cases: functional
Rattus norvegicus [1] = test: Tested for the induction of lower lip retraction (LLR) by the investigated compounds in rat at dosage of 8 mg/kg
Mus musculus [2] = test: Effect on body temperature in mice at intraperitoneal dosage of 1 mg/kg, (compound administered 30 min before the test) after 90 min
Mus musculus [3] = test: Effect on body temperature in mice at intraperitoneal dosage of 2 mg/kg, (compound administered 30 min before the test) after 30 min
Mus musculus [4] = test: Effect on 8-OH-DPAT-induced hypothermia in mice (5 mg/kg) at intraperitoneal dosage of 4 mg/kg of compound after 60 mins
Rattus norvegicus [5] = test: Tested for the induction of lower lip retraction (LLR) by the investigated compounds in rat at dosage of 16 mg/kg
Rattus norvegicus [6] = test: Tested for the effect on 8-OH-DPAT-induced behavior in reserpine pretreated rat against flat body posture at dosage of 4 mg/kg
Mus musculus [7] = test: Effect on body temperature in mice at intraperitoneal dosage of 1 mg/kg, (compound administered 30 min before the test) after 45 min
Mus musculus [8] = test: Effect on 8-OH-DPAT-induced hypothermia in mice (5 mg/kg) at intraperitoneal dosage of 8 mg/kg of compound after 15 mins
Mus musculus [9] = test: Effect on 8-OH-DPAT-induced hypothermia in mice (5 mg/kg) at intraperitoneal dosage of 2 mg/kg of compound after 45 mins
Mus musculus [10] = test: Effect on body temperature in mice at intraperitoneal dosage of 2 mg/kg, (compound administered 30 min before the test) after 60 min
Mus musculus [11] = test: Effect on 8-OH-DPAT-induced hypothermia in mice (5 mg/kg) at intraperitoneal dosage of 4 mg/kg of compound after 30 mins
Rattus norvegicus [12] = test: Tested for the effect on 8-OH-DPAT-induced behavior in reserpine pretreated rat against flat body posture at dosage of 8 mg/kg
Mus musculus [13] = test: Effect on body temperature in mice at intraperitoneal dosage of 4 mg/kg, (compound administered 30 min before the test) after 75 min
Mus musculus [14] = test: Effect on body temperature in mice at intraperitoneal dosage of 8 mg/kg, (compound administered 30 min before the test) after 75 min
Rattus norvegicus [15] = test: Tested for the induction of lower lip retraction (LLR) by the investigated compounds in rat at dosage of 4 mg/kg
Rattus norvegicus [16] = test: Tested for the effect on 8-OH-DPAT-induced behavior in reserpine pretreated rat against forepaw treading at dosage of 16 mg/kg

COc1ccccc1N1CCN(CCCn2nnc3ccccc32)CC1
LLR score (Rattus norvegicus [1]): 0.1
Delta t (Mus musculus [2]): 0.1 °C
Delta t (Mus musculus [3]): 0.3 °C
Delta t (Mus musculus [4]): 0.1 °C
LLR score (Rattus norvegicus [5]): 0.6
Behavioral score (Rattus norvegicus [6]): 11.5
Delta t (Mus musculus [7]): 0.1 °C
Delta t (Mus musculus [8]): 0.3 °C
Delta t (Mus musculus [9]): 0.1 °C
Delta t (Mus musculus [10]): 0.2 °C
Delta t (Mus musculus [11]): 0.1 °C
Behavioral score (Rattus norvegicus [12]): 8
Delta t (Mus musculus [13]): 0 °C
Delta t (Mus musculus [14]): 0.2 °C
LLR score (Rattus norvegicus [15]): 0
Behavioral score (Rattus norvegicus [16]): 2.6
